Seven compounds from patent US6893821B2, “Agents that modulate DNA-PK activity and methods of use thereof” (The Regents of the University of California, priority 2000, dated 2005) can be followed below.

“Also recorded” adds a separate entry of the source.

The target in one series is T1, DNA-PK (Homo sapiens, UniProt P12956+P13010+P78527).
T1 construct: purchased Promega
The series can be described thus: In vitro DNA-PK phosphorylation assay (affinity-purified DNA-PK, GST-p53 (1-70) substrate). Particulars: 30° C., 30 minutes; ps-ss ODNs 0-1, po-ISS-ODN 20-100, po-ds-ISS-ODN 0-10, genomic DNAs 1-5 ng/reaction. The class given is biochemical. As for the experimental part:
The in vitro DNA-PK phosphorylation assay was performed according to Hammarsten et al. (2000), supra, with modification. Briefly, affinity-purified DNA-PK (Promega, Mo.) was incubated with various DNA preparations (described below), 0.5 μg of GST-p53 (1-70) and 3.3 μCi of γ-^32p-ATP in a 20 μl reaction buffer (10 mM Tris-Cl, 5 mM MgCl2, 0.3 mM EDTA and 10 μM ATP) at 30° C. for 30 minutes. The reaction was stopped by addition of 4× loading buffer. The samples were boiled, loaded on 9% SDS-PAGE, transferred onto a PVDF membrane and visualized by autoradiography.
The ODNs (ps-ss) used include an ISS-ODN with an active CpG motif (AACGTT), a methylated ISS-ODN at the ^5C of the CpG dinucleotide (AA*CGTT) and various control ODNs. These ODNs were incubated at concentrations of 0, 0.1, 0.3, or 1 ng/reaction. The po-ISS-ODN was incubated at concentration of 20, 50 or 100 ng/reaction. The po-ds-ISS-ODN was incubated at concentration of 0, 0.5, 1, 2, 5 or 10 ng/reaction. The bacterial or calf thymus DNAs were each incubated at concentration of 1, 2 or 5 ng/reaction. Electrophoretic gel mobility shift assay (EMSA) was performed as previously described. Chu et al. (1999) Immunity 11:721-731; and Li et al., 1999, supra). In vitro IKK kinase assays were performed using purified IKK derived from Sf9 insect cell lysates as was previously described. Zandi et al. (1998) Science 281:1360-1363.

Series [1] concerns the target T2, Ku antigen (Ku70/Ku80 heterodimer) (Mus musculus, UniProt P23475+P27641).
T2 construct: from tissue; host or cells: mouse liver (BALB/c)
As to the kind of experiment: EMSA inhibition study: cold ODN vs [32P]-labeled ds-ISS-ODN binding to Ku (affinity column fraction 20). The note with it: for displacement of the interaction of [32P]-labeled ds-ISS-ODN with Ku: unlabeled ODN 0.1, 0.2 and 0.4 μg, 10 μg of fraction 20. As for the experimental part: Purification of the ISS binding protein was accomplished by sequential ion exchange, heparin and ISS-ODN affinity chromatography, as follows. Due to the relative small tissue weight per spleen, liver lysate was used after confirming its reactivity to in vivo ISS injection, as described above. Crude liver extracts from 220 mice (BALB/c, Jackson Lab., Bar Harbour, Me.) or 15 New Zealand White rabbits (Simunek, Vista, Calif.) were prepared in homogenization buffer (20 mM HEPES, pH 7.6, 250 mM KCl, 0.1 mM EDTA, 0.5 mM EGTA, 20% glycerol) with 250 mM KCl and protease and phosphatase inhibitors and then centrifuged at 100,000×g for 1.5 hours at 4° C. The supernatant (400 ml) was filtered and loaded onto a Porous 20 QE column (17 ml, Pharmacia). Two μl (10 μg) of each fraction were used in a gel retardation assay to identify the location of proteins containing DNA binding activity using [^32P]-labeled ds-ISS-ODN as a probe. Fractions containing ISS-ODN binding activity were pooled (450 ml), buffered exchanged to low salt (50 mM KCl) and loaded onto a Heparin column (2 ml). The active fractions were subsequently loaded onto a 2 ml ds-ISS-ODN affinity column [CNBr-activated Sepharose 4B (Pharmacia) coupled to 320 μg of ds-ISS-ODNs with the sequence 5′-[…]-3′; SEQ ID NO: 21]. The column was washed with 8 ml of homogenization buffer containing 50 mM KCl and the bound proteins were eluted with a 20 ml linear gradient of 50 mM to 1.55 M KCl. One-ml fractions were collected and 2 μl of each were used to test for DNA binding activity. The active fractions were concentrated, separated by SDS-PAGE and stained with Coomassie Blue. The appearance of two bands with estimated molecular weights of 70 KDa and 80 KDa correlated with the DNA binding activity. Sequence analysis (Harvard Microsequencing Facility) of peptides derived from the two bands identified Ku70 and Ku80, respectively.
Mouse liver extracts were purified through anion (QE), heparin and ISS-based affinity chromatography, as described above. Two μl of each fraction (10 μg) were incubated with [^32 P]-labeled ds-ISS-ODN at 4° C. for 30 minutes. The samples were separated on a 5% acrylamide gel and the protein-DNA complexes were detected by autoradiography. […] The active fractions were separated by sodium dodecyl sulfate-polyacrylamide gel electrophoresis (SDS-PAGE), stained with Coomassie blue and micro-sequenced.
To verify the binding specificity of the Ku protein to ISS-ODN, inhibition studies were performed using cold ss or ds ISS or mutated (M, i.e., control) ODNs. Ten μg of fraction 20 from the affinity column were incubated with [^32P]-labeled ISS-ODN in the presence of unlabeled (0.1, 0.2 and 0.4 μg, respectively) ss-ISS-ODN (lanes 3-5), ds-ISS-ODN (lanes 7-9), ss-M-ODN (lanes 11-13) or ds-M-ODN (lanes 15-17).
A general note: A gel shift assay detects complexes by their altered migration in electrophoresis.

For series [2], the system named is IL-6, IL-12 message in liver. The series can be described thus: RT-PCR for IL-6 and IL-12 message in livers of mice injected i.v. with ODN. The class given is in vivo. The note with it: mice i.v. 200 μl (1 μg/μl in PBS) of ss or ds ODN; 2.5 hours.
Another series concerns IκB kinase (IKK) complex. The series can be described thus: IKK kinase assay on IKK complex immunoprecipitated from treated BMDM (IκBα N-terminus substrate). The class given is cell-based, mice. As for the experimental part: Kinase assays and immunoblotting were performed according to Li et al. ((1999) J. Exp. Med. 189:1839-1845). Briefly, BMDM were treated with ISS-ODN (5 μg/ml), M-ODN (5 μg/ml) on ps and po backbones as indicated, LPS-free bacterial DNA or methylated bacterial DNA (5 μg/ml), LPS-free calf thymus DNA (5 μg/ml), LPS (10 μg/ml) or TNFα (10 ng/ml) for the indicated time periods. Cell lysates were prepared and normalized by immunoblotting (IB) with anti-IKKα polyclonal antibodies (Santa Cruz, Santa Cruz Biotech Inc., Calif.), anti-IKKβ polyclonal antbodies (Santa Cruz) or anti-DNA-PKcs monoclonal antibodies (NeoMarker, Calif.). IκB kinase (IKK) complex or DNA-PK complex from 100 μg of the lysates were immunoprecipitated by anti-IKKα or by anti-DNA-PKcs antibodies. The kinase activities (KA) were determined by a kinase assay using the N-terminus of IκBα (for IKK) or the N-terminus of p53 (for DNA-PK) as a substrate as previously described. Wang et al. (1992) Proc. Natl. Acad. Sci. USA 89:4231-4235; Li et al.(1999), supra; and Hammarsten et al. (2000) J. Biol. Chem. 275:1541-1545.

The subject of series [3] is bone marrow derived macrophages (BMDM). The series can be described thus: IL-6 and IL-12 levels in BMDM culture supernatants by ELISA. The note with it: BMDM. Type of series: cell-based, mice. As for the experimental part: Ku70^−/− and Ku80^−/− mice and their wild-type (wt) control on the 129 genetic background were generated by Dr. G. Li and bred at Memorial Sloan-Kettering Cancer Center (MSKCC), New York, N.Y. BMDM from wt, Ku70^−/− and Ku80^−/− mice (MSKCC) were prepared as was previously published (Martin-Orozco et al. (1999) Int. Immunol. 11:1111), and maintained in DMEM with 10% FBS, antibiotics and 20% L-cell medium and cultured for about 10 days to allow them to mature. BMDM were seeded (2.5×10^5/well in triplicate) on 96-well plates and treated with LPS (10 μg/ml), ISS-ODN (5 μg/ml) or M-ODN (5 μg/ml).
BMDM (2.5×10^5/well) from wt, or Ku70^−/− and Ku80^−/− mice were treated with LPS (1 μg/ml), ISS-ODN (5 μg/ml) or M-ODN (5 μg/ml) for 24 hours. IL-6 (A) or IL-12 (B) levels in the supernatants were determined by ELISA. Results are means±S.D, of 5 separate experiments for wt and Ku70^−/− and 3 separate experiments for Ku80^−/− mice. (C) BMDM were incubated with LPS (10 μg/ml) or ISS-ODN (5 μg/ml) for 6.5 hours. Total RNA was isolated and analyzed for the presence of IL-6, IL-12 and GAPDH messages by a Northern blot assay, as described in Example 1. Results are means±S.D. of 5 separate experiments for wt and Ku70^−/− and 3 separate experiments for Ku80^−/− mice.
DNA-PKcs^−/− and their wt control mice on the 129 genetic background were generated by Dr. G. C. Li and bred at Memorial Sloan-Kettering Cancer Center, New York, N.Y. IKKβ^−/− Tnfr1^−/− mice were generated by Drs. Z-W Li and Karin M. ATM^−/− mice on the C57BL/6 background were generated and bred by Dr. Y. Xu (UCSD) as was previously described (Xu et al.(1996) Genes Dev. 10:2411-2422) while their wild-type (wt) control were purchased from Jackson Laboratories (Bar Harbor, Me.). BMDMs from wt, DNA-PKcs^−/− mice, IKKβ^−/− Tnfr1^−/− and ATM^−/− mice were prepared as was previously published (Martin-Orozco et al. (1999) Intl. Immunol. 11:1111-1118), maintained in DMEM with 10% FBS, antibiotics and 20% L-cell medium and cultured for 7-10 days to allow them to mature. Prior to use BMDM were seeded (2.5×10^5/well in triplicate) in 96-well plates and than treated with LPS (1 μg/ml), ISS-ODN (5 μg/ml) or M-ODN (5 μg/ml), po-ISS-ODN (10 μg/ml) or po-ds-ISS-ODN (10 μg/ml), LPS-free, ultra pure bacterial DNA (E. coli, Sigma) (15 μg/ml) or methylated bacterial DNA or LPS-free, ultra pure calf thymus DNA (Sigma) (15 μg/ml). Methylation of bacterial DNA was performed by SssI methylase (Biolab, Boston, Mass.) (15 μg/ml) following manufacturer's instruction. Where indicated the PI3K inhibitor wortmannin (Wm), at various concentrations, was added to ISS-ODN or LPS stimulated BMDMs. After 24 hours in culture, the supernatants were collected and assayed for IL-6 and IL-12 levels by ELISA kits (PharMingen, San Diego, Calif.).
On the technique in general: ELISA stands for enzyme-linked immunosorbent assay.

T2 sequence (P23475 2-608 limits assumed): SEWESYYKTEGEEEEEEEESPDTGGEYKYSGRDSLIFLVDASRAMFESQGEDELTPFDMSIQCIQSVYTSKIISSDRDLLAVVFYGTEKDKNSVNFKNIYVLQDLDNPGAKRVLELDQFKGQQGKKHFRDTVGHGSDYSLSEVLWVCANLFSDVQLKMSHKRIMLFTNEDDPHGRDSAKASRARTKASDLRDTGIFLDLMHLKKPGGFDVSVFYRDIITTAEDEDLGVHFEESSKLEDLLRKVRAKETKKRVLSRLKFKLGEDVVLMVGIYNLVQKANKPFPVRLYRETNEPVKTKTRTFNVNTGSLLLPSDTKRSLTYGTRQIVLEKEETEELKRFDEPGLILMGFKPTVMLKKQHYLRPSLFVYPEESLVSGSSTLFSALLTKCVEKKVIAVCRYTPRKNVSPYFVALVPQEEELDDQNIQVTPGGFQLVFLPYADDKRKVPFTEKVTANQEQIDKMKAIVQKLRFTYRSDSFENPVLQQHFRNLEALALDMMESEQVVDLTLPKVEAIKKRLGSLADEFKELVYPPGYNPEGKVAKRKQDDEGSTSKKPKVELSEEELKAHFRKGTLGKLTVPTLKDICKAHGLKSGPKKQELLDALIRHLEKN
T2 sequence (P27641 whole entry): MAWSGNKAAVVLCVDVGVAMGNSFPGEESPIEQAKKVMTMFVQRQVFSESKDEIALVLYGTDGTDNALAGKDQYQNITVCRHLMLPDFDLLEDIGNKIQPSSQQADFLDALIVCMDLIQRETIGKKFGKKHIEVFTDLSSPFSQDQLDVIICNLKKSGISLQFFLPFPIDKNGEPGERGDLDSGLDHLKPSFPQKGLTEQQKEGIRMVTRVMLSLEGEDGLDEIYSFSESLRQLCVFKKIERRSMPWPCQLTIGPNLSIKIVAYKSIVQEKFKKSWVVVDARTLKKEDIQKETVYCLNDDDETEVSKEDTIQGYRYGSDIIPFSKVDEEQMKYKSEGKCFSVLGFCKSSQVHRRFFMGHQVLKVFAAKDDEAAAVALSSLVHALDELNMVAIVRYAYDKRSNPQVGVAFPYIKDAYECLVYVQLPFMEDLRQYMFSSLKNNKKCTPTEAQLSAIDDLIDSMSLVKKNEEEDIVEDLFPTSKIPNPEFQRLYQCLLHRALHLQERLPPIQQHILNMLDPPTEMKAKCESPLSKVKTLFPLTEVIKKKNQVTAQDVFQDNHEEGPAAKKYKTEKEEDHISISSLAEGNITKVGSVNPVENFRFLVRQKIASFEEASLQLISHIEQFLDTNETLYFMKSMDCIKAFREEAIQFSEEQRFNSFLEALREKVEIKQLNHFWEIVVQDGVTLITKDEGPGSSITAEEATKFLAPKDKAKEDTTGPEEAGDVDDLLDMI

As to “5′-TGACTGTGAA*CGTTAGAGATGA-3′ (DNA TGACTGTGAACGTTAGAGATGA; 5-methylcytosine, chemistry not fully specified) [Methylated ISS-ODN, *C denotes 5-methyl C, reference compound]”, the “DNA-PK activity in vitro (phosphorylation of the N-terminal portion of p53)” value with DNA-PK is given as “weaker DNA-PK activators than their unmethylated counterparts”.

For “5′-TGACTGTGAACCTTAGAGATGA-3′ [ds-M-ODN, reference compound]”, the “displacement of the interaction of [32P]-labeled ds-ISS-ODN with Ku” value in series [1] is “did not have any significant effect”.

On to “5′-TGACTGTGAACGTTCGAGATGA-3′ [ds-ISS-ODN]”, for which, in series [1], the “displacement of the interaction of [32P]-labeled ds-ISS-ODN with Ku” value was “displaced the interaction”.

As to “5′-TGACTGTGAAGGTTAGAGATGA-3′ [M-ODN, reference compound]”, the “IL-6 and IL-12 message in liver (RT-PCR)” value in series [2] is given as “did not display any immune stimulation; also recorded: lack of induction”. For the same compound, the “interaction of Ku with ODN” value in series [1] is on record as “lack of interaction”. For the same compound, the IKK activation result in the series on IκB kinase (IKK) complex (wt BMDM) is “little increase in IKK activity”. Moreover, in the series on IκB kinase (IKK) complex (wt BMDM (FIG. 5B)), the “IKK activation, concentration series” value is “little IKK activation”.

For `O=c1cc(N2CCOCC2)oc2c(-c3ccccc3)cccc12` [Ly, Ly294002, reference compound], the “inhibition of LPS-induced secretion of IL-6 and IL-12” value in series [3] is given as “did not inhibit”.

On to `COC[C@H]1OC(=O)c2coc3c2[C@@]1(C)C1=C(C3=O)[C@@H]2CCC(=O)[C@@]2(C)C[C@H]1OC(C)=O` [Wm, wortmannin, reference compound], for which the “effect on IKK activation by TNFα” value in the series on IκB kinase (IKK) complex (Wm at 1000 nM) is “no effect”. Also, the “inhibition of LPS-induced secretion of IL-6 and IL-12” value in series [3] is recorded as “did not inhibit”.

For TNFα [reference compound], the IKK activation result in the series with IκB kinase (IKK) complex (DNA-PKcs-/- BMDM as compared to wt) is “fully responsive”.
